Measured values as given in ChEMBL document CHEMBL3124778, “Structure-based design of new dihydrofolate reductase antibacterial agents: 7-(benzimidazol-1-yl)-2,4-diaminoquinazolines” (J Med Chem, 2014).
Values after ≈ are worked out from the molar mass of the structure shown.

Columns and labels:
[1] = Selectivity ratio of Ki for human DHFR to Ki for Staphylococcus aureus DHFR
Staphylococcus aureus [2] = experiment: Antibacterial activity against TMP-resistant Staphylococcus aureus expressing DHFR F99Y mutant after 18 to 24 hrs by alamar Blue assay; assay type: functional
Staphylococcus aureus [3] = experiment: Antibacterial activity against Staphylococcus aureus ATCC 13709 after 18 to 24 hrs by alamar Blue assay; assay type: functional
Dihydrofolate reductase [4] = target: T1, Dihydrofolate reductase (Homo sapiens, UniProt P00374); experiment: Inhibition of human DHFR using dihydrofolate as substrate preincubated for 10 mins followed by substrate addition by spectrophotometric analysis in presence of NADPH
T1 sequence (P00374 whole entry): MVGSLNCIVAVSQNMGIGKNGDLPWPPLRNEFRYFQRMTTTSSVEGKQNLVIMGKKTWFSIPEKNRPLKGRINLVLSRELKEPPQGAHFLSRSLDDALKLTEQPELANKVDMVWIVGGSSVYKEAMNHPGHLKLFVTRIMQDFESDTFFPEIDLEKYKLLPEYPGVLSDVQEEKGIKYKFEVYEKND

Dihydrofolate reductase [5] = target: Dihydrofolate reductase (Staphylococcus aureus, UniProt P0A017); experiment: Inhibition of Staphylococcus aureus DHFR using dihydrofolate as substrate preincubated for 10 mins followed by substrate addition by spectrophotometric analysis in presence of NADPH
Sequence of Dihydrofolate reductase (Staphylococcus aureus, UniProt P0A017) (P0A017 whole entry): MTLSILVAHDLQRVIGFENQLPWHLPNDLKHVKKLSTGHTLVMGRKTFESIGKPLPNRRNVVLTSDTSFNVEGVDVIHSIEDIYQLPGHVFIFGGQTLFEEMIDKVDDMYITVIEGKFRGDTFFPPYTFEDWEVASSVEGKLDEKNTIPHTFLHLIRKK

Staphylococcus aureus [6] = experiment: Antibacterial activity against Staphylococcus aureus ATCC 13709 after 18 to 24 hrs by alamar Blue assay in presence of 20% heat inactivated mouse serum; assay type: functional
Streptococcus pneumoniae [7] = experiment: Antibacterial activity against Streptococcus pneumoniae ATCC 700674 after 18 to 24 hrs by alamar Blue assay; assay type: functional
Streptococcus pneumoniae [8] = experiment: Antibacterial activity against Streptococcus pneumoniae ATCC 700671 after 18 to 24 hrs by alamar Blue assay; assay type: functional
Streptococcus pneumoniae [9] = experiment: Antibacterial activity against Streptococcus pneumoniae after 18 to 24 hrs by alamar Blue assay; assay type: functional
Streptococcus pneumoniae [10] = experiment: Antibacterial activity against Streptococcus pneumoniae ATCC 700677 after 18 to 24 hrs by alamar Blue assay; assay type: functional
Streptococcus pneumoniae [11] = experiment: Antibacterial activity against Streptococcus pneumoniae ATCC 49619 after 18 to 24 hrs by alamar Blue assay; assay type: functional
Streptococcus pneumoniae [12] = experiment: Antibacterial activity against Streptococcus pneumoniae ATCC BAA-255 after 18 to 24 hrs by alamar Blue assay; assay type: functional
Streptococcus pneumoniae [13] = experiment: Antibacterial activity against Streptococcus pneumoniae ATCC 700675 after 18 to 24 hrs by alamar Blue assay; assay type: functional
Streptococcus pneumoniae [14] = experiment: Antibacterial activity against Streptococcus pneumoniae ATCC 700676 after 18 to 24 hrs by alamar Blue assay; assay type: functional
Streptococcus pneumoniae [15] = experiment: Antibacterial activity against Streptococcus pneumoniae ATCC 700669 after 18 to 24 hrs by alamar Blue assay; assay type: functional
Streptococcus pneumoniae [16] = experiment: Antibacterial activity against Streptococcus pneumoniae ATCC 51916 after 18 to 24 hrs by alamar Blue assay; assay type: functional
Streptococcus pneumoniae [17] = experiment: Antibacterial activity against Streptococcus pneumoniae ATCC 700904 after 18 to 24 hrs by alamar Blue assay; assay type: functional

Compound	Ratio Ki [1]	MIC (Staphylococcus aureus [2])	MIC (Staphylococcus aureus [3])	Ki (Dihydrofolate reductase [4])	Ki (Dihydrofolate reductase [5])	MIC (Staphylococcus aureus [6])	other results
COc1cc2nc(-c3nccs3)n(-c3ccc4c(N)nc(N)nc4c3)c2cc1OC	5300	16 µg/mL (≈ 38.1 µM)					
Cc1cc2nc(C3CCOC3)n(-c3ccc4c(N)nc(N)nc4c3)c2cc1C (configuration not stated)		> 64 µg/mL	8 µg/mL (≈ 21.4 µM)	> 5000 nM	4.2 nM	64 µg/mL	
Cc1cc2ncn(-c3ccc4c(N)nc(N)nc4c3)c2cc1C		> 64 µg/mL	2 µg/mL (≈ 6.57 µM)	1610 nM	1.7 nM	32 µg/mL	
COc1cc2nc(-c3nccs3)n(-c3cc4nc(N)nc(N)c4cc3Cl)c2cc1OC	29000	2 µg/mL (≈ 4.41 µM)	0.125 µg/mL (≈ 0.275 µM)				
Cc1cc2nc(-c3cccs3)n(-c3ccc4c(N)nc(N)nc4c3)c2cc1C		0.25 µg/mL (≈ 0.647 µM)	0.015 µg/mL (≈ 0.0388 µM)				MIC (Streptococcus pneumoniae [7]): 16 µg/mL (≈ 41.4 µM); MIC (Streptococcus pneumoniae [8]): 32 µg/mL (≈ 82.8 µM); MIC50 (Streptococcus pneumoniae [9]): 1 µg/mL (≈ 2.59 µM); MIC90 (Streptococcus pneumoniae [9]): 16 µg/mL (≈ 41.4 µM); MIC (Streptococcus pneumoniae [10]): 0.25 µg/mL (≈ 0.647 µM); MIC (Streptococcus pneumoniae [11]): ≤ 0.5 µg/mL; MIC (Streptococcus pneumoniae [12]): ≤ 0.125 µg/mL; MIC (Streptococcus pneumoniae [13]): 1 µg/mL (≈ 2.59 µM); MIC (Streptococcus pneumoniae [14]): 0.25 µg/mL (≈ 0.647 µM); MIC (Streptococcus pneumoniae [15]): 4 µg/mL (≈ 10.3 µM); MIC (Streptococcus pneumoniae [16]): 4 µg/mL (≈ 10.3 µM); MIC (Streptococcus pneumoniae [17]): 4 µg/mL (≈ 10.3 µM)
Cc1cc2nc(-c3cscn3)n(-c3ccc4c(N)nc(N)nc4c3)c2cc1C	11500	16 µg/mL (≈ 41.3 µM)	2 µg/mL (≈ 5.16 µM)	1100 nM	0.096 nM	2 µg/mL	
COc1cc2nc(-c3ccccn3)n(-c3ccc4c(N)nc(N)nc4c3)c2cc1OC	2300	> 64 µg/mL	4 µg/mL (≈ 9.67 µM)	841 nM	0.36 nM	16 µg/mL	
COc1cc(Cc2cnc(N)nc2N)cc(OC)c1OC [TRIMETHOPRIM]							MIC (Streptococcus pneumoniae [7]): > 64 µg/mL; MIC (Streptococcus pneumoniae [8]): > 64 µg/mL; MIC50 (Streptococcus pneumoniae [9]): 8 µg/mL (≈ 27.6 µM); MIC90 (Streptococcus pneumoniae [9]): > 64 µg/mL; MIC (Streptococcus pneumoniae [10]): 4 µg/mL (≈ 13.8 µM); MIC (Streptococcus pneumoniae [11]): 4 µg/mL (≈ 13.8 µM); MIC (Streptococcus pneumoniae [12]): 0.5 µg/mL (≈ 1.72 µM); MIC (Streptococcus pneumoniae [13]): 8 µg/mL (≈ 27.6 µM); MIC (Streptococcus pneumoniae [14]): 4 µg/mL (≈ 13.8 µM); MIC (Streptococcus pneumoniae [15]): > 64 µg/mL; MIC (Streptococcus pneumoniae [16]): > 64 µg/mL; MIC (Streptococcus pneumoniae [17]): > 64 µg/mL
Cc1cc2nc(C3CCCO3)n(-c3ccc4c(N)nc(N)nc4c3)c2cc1C (configuration not stated)		16 µg/mL (≈ 42.7 µM)	0.5 µg/mL (≈ 1.34 µM)	749 nM	0.2 nM	> 16 µg/mL	
COc1cc2nc(-c3cccs3)n(-c3cc4nc(N)nc(N)c4cc3Cl)c2cc1OC		4 µg/mL (≈ 8.83 µM)	0.5 µg/mL (≈ 1.1 µM)	> 3000 nM	0.048 nM	0.5 µg/mL	
Cc1cc2nc(-c3ccncc3)n(-c3ccc4c(N)nc(N)nc4c3)c2cc1C		8 µg/mL (≈ 21 µM)	0.125 µg/mL (≈ 0.328 µM)	437 nM	0.026 nM	0.5 µg/mL	
COc1cc2nc(-c3nccs3)n(-c3cc4nc(N)nc(N)c4cc3C)c2cc1OC	8950	8 µg/mL (≈ 18.5 µM)	0.5 µg/mL (≈ 1.15 µM)			0.5 µg/mL	
Cc1cc2nc(-c3cccnc3)n(-c3ccc4c(N)nc(N)nc4c3)c2cc1C	> 1250	32 µg/mL (≈ 83.9 µM)	0.5 µg/mL (≈ 1.31 µM)	1560 nM	0.26 nM	2 µg/mL	
Cc1cc2nc(-c3nccs3)n(-c3cc4nc(N)nc(N)c4cc3C)c2cc1C	97	0.125 µg/mL (≈ 0.311 µM)	0.03 µg/mL (≈ 0.0747 µM)			0.06 µg/mL	
